1 molecule from patent publication US10851069B2, “Compositions of crystallized hydrophobic compounds and methods of making and using same” (Massachusetts Institute of Technology, priority 2016, dated 2020) can be followed below.

Data set [1] relates to C57BL/6 mice. The data set is described as follows: Naked GW2580 crystals co-injected SC with polystyrene or glass spheres, 2 weeks. Type of data set: in vivo. Here is the method:
Naked crystals of GW2580 or saline-only (no drug control) were delivered intraperitoneally along with 500 μm alginate spheres for 2 weeks to C57BL/6 mice. […] Brightfield and fluorescence imaging was used to emphasize the respective presence or lack of fibrotic overgrowth on retrieved alginate spheres from either saline (control) or crystalline GW2580 treatment groups (FIG. 17C). […] GW2580 crystal testing (at doses of 0.5 and 5 mg/SC site) was also extended into the SC implant space with other immunogenic materials, ceramic glass (GL) and polymer polystyrene (PS). […] Retrieved materials where fixed overnight using 4% paraformaldehyde at 4° C. After fixation, alginate sphere or retrieved tissue samples were washed using 70% alcohol. The materials where then mixed with 4 degrees calcium-cooled Histogel (VWR, CA #60872-486). After the molds hardened, the blocks were processed for paraffin embedding, sectioning and staining according to standard histological methods. Single-cell suspensions of freshly excised tissues were prepared using a gentle MACS Dissociator (Miltenyi Biotec, Auburn, Calif.) according to the manufacturer's protocol. Single-cell suspensions were prepared in a passive PEB dissociation buffer (1×PBS, pH 7.2, 0.5% BSA, and 2 mM EDTA) and suspensions were passed through 70 μm filters (Cat. #22363548, Fisher Scientific, Pittsburgh, Pa.). This process removed the majority of cells adhered to the surface (>90%). All tissue and material sample-derived, single-cell populations were then subjected to red blood cell lysis with 5 ml of 1×RBC lysis buffer (Cat. #00-4333, eBioscience, San Diego, Calif., USA) for 5 min at 4° C. The reaction was terminated by the addition of 20 ml of sterile 1×PBS. The cells remaining were centrifuged at 300-400 g at 4° C. and resuspended in a minimal volume (˜50 μl) of eBioscience Staining Buffer (cat. #00-4222) for antibody incubation. All samples were then co-stained in the dark for 25 min at 4° C. with two of the fluorescently tagged monoclonal antibodies specific for the cell markers CD68 (1 μl (0.5 μg) per sample; CD68-Alexa647, Clone FA-11, Cat. #11-5931, BioLegend), Ly-6G (Gr-1) (1 μl (0.5 μg) per sample; Ly-6G-Alexa-647, Clone RB6-8C5, Cat. #108418, BioLegend), CD11b (1 μl (0.2 μg) per sample; or CD11b-Alexa-488, Clone M1/70, Cat. #101217, BioLegend). For alpha smooth muscle actin (fibrosis) analysis, additional cell aliquots were also fixed in 1% paraformaldehyde and permeabilized with 0.1% triton X-100 before being stained with Cy3-conjugated anti-mouse αSM actin antibody (1:100) (Sigma Aldrich, St. Louis, Mo.). Two ml of eBioscience Flow Cytometry Staining Buffer (cat. #00-4222, eBioscience) was then added, and the samples were centrifuged at 400-500 g for 5 min at 4° C. […]

The nature of data set [2]: Drug levels in retrieved capsules, IP lavage and plasma in non-human primates (HPLC, LCMS). Type of data set: in vivo, cynomolgus macaques. Here is the method:
LC pumps used are Agilent 1290 Infinity Binary pumps with CTC Pal Autosampler. MS is a Sciex API6500 triple quad. Sample Storage Conditions: −80° C. Sample Processing Extraction Volume: 10 μL. Extraction Method: Protein Precipitation. For example: GW2580 plasma concentration analysis: Sample Extraction Procedure: 1. 10 μL of calibration standards, quality controls, blanks and samples were aliquoted into a 96-well plate. 2. 60 μL of IS-SS (internal standard) (100 ng/mL QNZ, carbutamide, chrysin, carbamazepine, glafenine, dexamethasone, glyburide, and d4AEA in acetonitrile) were added to all samples except for double blanks. 60 μL of acetonitrile was then added to double blanks. 3. The plate was covered and samples mixed, followed by centrifugation for 5 minutes at 3000 rpm at 4° C. 4. 50 μL of supernatant was then transferred into a clean 96-well plate using a liquid handler. 5. Samples were diluted with 100 μL of MilliQ water, and the plate was once again covered and mixed for about a minute prior to sample injection onto the LC-MS/MS at 1.00-2,500 ng/mL. LC Conditions: Waters BEH C18, 50×2.1 mm, 1.7 μm. Run temperature: 50° C. Mobile Phase A, 95:5:0.1 (v:v:v) Water:Acetonitrile:Formic Acid (1.2 min). Mobile Phase B, 50:50:0.1 (v:v:v) Methanol:Acetonitrile:Formic Acid (1.3 min). Flow: 0.8 mL/min. Injection Volume: 2 μL. MS Conditions: MS/MS: API-6500. Ionization Method: Electrospray. Positive/Negative Ion: Positive. Resolution: Unit. Source Temperature (° C.): 550. Transitions (m/z): Compound ID: GW2580 367.0/245.1 Da. Int Std ID: QNZ 357.0/197.1 Da. Data Analysis: Acceptance Criteria ‘±20% (±25% at the LLOQ), Regression Type, Linear (1/(x*x)), Accepted Curve Range 1.00-2,500 ng/mL Carryover 0.00%. HPLC
Calibration curves were obtained on an Agilent LC 1100 Series (Agilent Technologies, CA, USA) equipped with binary pump (G1312 Å), auto-sampler (G1313 Å), degasser and photodiode detector (DAD, G1315 Å). Chemstation was used for system control, data processing and data acquisition for LC. Chromatographic separation was achieved by an analytical Waters Atlantis T3 C18 column (5 μm, 4.6×250 mm). The temperature of column and auto-sampler were kept at 20° C.
Stock solution of GW2580 was prepared in dimethyl sulfoxide (DMSO) at a target concentration of 10 mg/ml and appropriate dilutions were made in DMSO to prepare standards (0.25-2500 μg/ml) for calibration curve of GW2580. 10 μl of standard solution was injected and the analytes were eluted by gradient mode using (A) acetonitrile and (B) 0.1% formic acid in water at a constant flow rate of 1 ml/min. The gradient conditions of mobile phase were as follows: 0 min 10% A, 10 min 95% A, 14 min 95% A, 16 min 10% A, 20 min 10% A.

For `COc1ccc(COc2ccc(Cc3cnc(N)nc3N)cc2OC)cc1` [GW2580, 5-[[3-Methoxy-4-[(4-methoxyphenyl)methoxy]phenyl]methyl]-2,4-pyrimidinediamine], the “responding macrophages (FACS)” value in data set [1] (SC-implanted PS and GL 0.5 mm spheres, 2 weeks) was “significant reductions in responding macrophages”. In addition, the “drug extracted from nearby tissue” value in data set [1] (all implant groups, 2 weeks) is “large quantities of remaining drug”. Also, in data set [1] (ceramic glass (GL) spheres, SC, no histology), the anti-fibrotic effect result is given as “anti-fibrotic effects were also observed”. In addition, in data set [1] (polystyrene (PS) spheres, SC, 0.5 and 5 mg/SC site, 2 weeks), the “anti-fibrotic effect (H&E and Masson's Trichrome)” value is “significant anti-fibrotic effects”. Further, the “remaining drug extracted from retrieved capsules” value in data set [2] (0.5 mm capsules, IP space, 3 months) is recorded as “little to no drug”; in data set [2] (1.5 mm capsules, IP and SC sites, up to 6 months), “additional stores”. The plasma drug concentration result in data set [2] (at the termination of the study) is recorded as “below detection limits”. In addition, the “IP space (lavage) drug concentration” value in data set [2] (beyond 4 weeks, below detectable limit) was less than 0.5 ng/mL. This molecule also displayed a concentration at 4 weeks in data set [2] (cynomolgus monkey, intraperitoneal space lavage fluid, ip, 4 weeks post-implantation) of 2 to 3 ng/mL.
